Results from PubChem BioAssay AID248 (DTP/NCI, 2004).
Several values for one entry are separate records, joined by “and”; a condition that tells them apart may be missing. Equal values may be shown once. Inconclusive results and toxic doses are left out. Rule as the data show it: active = T/C of 150% or more; inactive = T/C below 125%.

Tested on: L1210 leukemia ip in BDF1 mice, survival T/C
Test: NCI In Vivo Anticancer Drug Screen. Data for tumor model L1210 Leukemia (intraperitoneal) in B6D2F1 (BDF1) mice
Settings: higher = longer survival
Procedure, shortened: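 Antitumor effect is assessed in tumor-bearing animals. Survival in the compound arm is compared with a vehicle-dosed control arm and expressed as their quotient.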

[1] = endpoint: mean survival time, dose: 100.0 mg/kg/injection, schedule: Q04DX003 (ip), vehicle: saline with Tween-80
[2] = endpoint: mean survival time, dose: 100.0 mg/kg/injection, schedule: Q01DX001 (ip), vehicle: saline
[3] = endpoint: mean survival time, dose: 100.0 mg/kg/injection, schedule: Q04DX003 (ip), vehicle: saline
[4] = endpoint: mean survival time, dose: 200.0 mg/kg/injection, schedule: Q01DX001 (ip), vehicle: saline
[5] = endpoint: mean survival time, dose: 200.0 mg/kg/injection, schedule: Q04DX003 (ip), vehicle: saline
[6] = endpoint: mean survival time, dose: 400.0 mg/kg/injection, schedule: Q04DX003 (ip), vehicle: saline
[7] = endpoint: mean survival time, dose: 100.0 mg/kg/injection, schedule: Q01DX009 (ip), vehicle: Klucel (hydroxypropylcellulose) (HPC)
[8] = endpoint: mean survival time, dose: 100.0 mg/kg/injection, schedule: Q04DX003 (ip), vehicle: Klucel (hydroxypropylcellulose) (HPC)
[9] = endpoint: mean survival time, dose: 200.0 mg/kg/injection, schedule: Q01DX009 (ip), vehicle: Klucel (hydroxypropylcellulose) (HPC)
[10] = endpoint: mean survival time, dose: 200.0 mg/kg/injection, schedule: Q04DX003 (ip), vehicle: Klucel (hydroxypropylcellulose) (HPC)
[11] = endpoint: mean survival time, dose: 400.0 mg/kg/injection, schedule: Q01DX009 (ip), vehicle: Klucel (hydroxypropylcellulose) (HPC)
[12] = endpoint: mean survival time, dose: 400.0 mg/kg/injection, schedule: Q04DX003 (ip), vehicle: Klucel (hydroxypropylcellulose) (HPC)
[13] = endpoint: mean survival time, dose: 50.0 mg/kg/injection, schedule: Q01DX009 (ip), vehicle: Klucel (hydroxypropylcellulose) (HPC)
[14] = endpoint: mean survival time, dose: 400.0 mg/kg/injection, schedule: Q01DX001 (ip), vehicle: saline

Measured: T/C

C=C1CC(CCCCCC2CC(=C)C(=O)O2)OC1=O (centres undefined)
inactive: endpoint: mean survival time, dose: 12.5 mg/kg/injection, schedule: Q04DX002 (ip), vehicle: saline 94 % of control | endpoint: mean survival time, dose: 25.0 mg/kg/injection, schedule: Q04DX002 (ip), vehicle: saline 94 % of control | endpoint: mean survival time, dose: 50.0 mg/kg/injection, schedule: Q04DX002 (ip), vehicle: saline 102 % of control

[O-][n+]1c(CCl)nc2cccc3c2c1-c1ccccc1-3
inactive: endpoint: mean survival time, dose: 25.0 mg/kg/injection, schedule: Q01DX009 (ip), vehicle: saline with Tween-80 108 % of control | endpoint: mean survival time, dose: 50.0 mg/kg/injection, schedule: Q01DX009 (ip), vehicle: saline with Tween-80 110 % of control | endpoint: mean survival time, dose: 50.0 mg/kg/injection, schedule: Q04DX003 (ip), vehicle: saline with Tween-80 102 % of control | endpoint: mean survival time, dose: 100.0 mg/kg/injection, schedule: Q01DX009 (ip), vehicle: saline with Tween-80 104 % of control | [1] 107 % of control

OC(CNc1ccc(Cl)cc1)CN1CCCCC1 (centres undefined)
inactive: endpoint: mean survival time, dose: 50.0 mg/kg/injection, schedule: Q04DX003 (ip), vehicle: saline 91 % of control | [2] 100 % of control | [3] 98 % of control | [4] 90 % of control

CC(CS(=O)(=O)O)N1CCN(CCO)CC1 (centres undefined)
inactive: endpoint: mean survival time, dose: 100.0 mg/kg/injection, schedule: Q01DX009 (ip), vehicle: saline 101 % of control | [3] 108 % of control | endpoint: mean survival time, dose: 200.0 mg/kg/injection, schedule: Q01DX009 (ip), vehicle: saline 96 % of control | [5] 103 % of control | endpoint: mean survival time, dose: 400.0 mg/kg/injection, schedule: Q01DX009 (ip), vehicle: saline 96 % of control | [6] 94 % of control

O=Cc1cn[nH]c1-c1ccccc1
inactive: [7] 97 % of control | [8] 95 % of control | [9] 97 % of control | [10] 98 % of control | [11] 106 % of control | [12] 98 % of control

COC(=O)c1cccc(N=NN(C)C)c1
inactive: [13] 105 % of control | [7] 119 % of control | [9] 108 % of control | endpoint: median survival time, dose: 23.0 mg/kg/injection, schedule: Q01DX009 (ip), vehicle: steriod suspending solution 110 % of control | endpoint: median survival time, dose: 65.0 mg/kg/injection, schedule: Q01DX001 (ip), vehicle: steriod suspending solution 100 % of control | endpoint: median survival time, dose: 65.0 mg/kg/injection, schedule: Q04DX003 (ip), vehicle: steriod suspending solution 105 % of control | endpoint: median survival time, dose: 108.0 mg/kg/injection, schedule: Q01DX001 (ip), vehicle: steriod suspending solution 100 % of control | endpoint: median survival time, dose: 108.0 mg/kg/injection, schedule: Q04DX003 (ip), vehicle: steriod suspending solution 110 % of control | endpoint: median survival time, dose: 180.0 mg/kg/injection, schedule: Q01DX001 (ip), vehicle: steriod suspending solution 110 % of control | endpoint: median survival time, dose: 300.0 mg/kg/injection, schedule: Q01DX001 (ip), vehicle: steriod suspending solution 110 % of control | endpoint: median survival time, dose: 833.0 mg/kg/injection, schedule: Q01DX001 (ip), vehicle: steriod suspending solution 100 % of control

COc1ccc(OC)c2c1CC1CC(=O)OC21C (centres undefined)
inactive: [7] 97 % of control | [8] 97 % of control | [9] 92 % of control | [10] 97 % of control | [11] 97 % of control | [12] 97 % of control

Cc1ccc(NC(=O)OC/C=C/c2ccccc2)c([N+](=O)[O-])c1
inactive: [8] 90 % of control | [10] 93 % of control | [12] 93 % of control

O=C(O)C1CC(Br)C2CC1C(=O)O2 (centres undefined)
inactive: [3] 91 % of control | [5] 105 % of control | [6] 97 % of control

CN(C)C1C(=O)C(C(=O)NCNC(CCS(C)=O)C(=O)O)=C(O)C2(O)C(=O)C3=C(O)c4c(O)cccc4C(C)(O)C3CC12 (centres undefined)
inactive: [2] 91 % of control | [3] 95 % of control | [4] 91 % of control | [5] 92 % of control | [14] 91 % of control | [6] 87 % of control

CCN(CC)CCN1c2cc(C)ccc2Sc2ccc3ccccc3c21
inactive: endpoint: mean survival time, dose: 100.0 mg/kg/injection, schedule: Q01DX001 (sc), vehicle: olive oil, sesame oil, peanut oil 101 % of control | endpoint: mean survival time, dose: 100.0 mg/kg/injection, schedule: Q01DX009 (sc), vehicle: olive oil, sesame oil, peanut oil 101 % of control | endpoint: mean survival time, dose: 100.0 mg/kg/injection, schedule: Q04DX003 (sc), vehicle: olive oil, sesame oil, peanut oil 110 % of control | endpoint: mean survival time, dose: 200.0 mg/kg/injection, schedule: Q01DX001 (sc), vehicle: olive oil, sesame oil, peanut oil 100 % of control | endpoint: mean survival time, dose: 200.0 mg/kg/injection, schedule: Q01DX009 (sc), vehicle: olive oil, sesame oil, peanut oil 118 % of control | endpoint: mean survival time, dose: 200.0 mg/kg/injection, schedule: Q04DX003 (sc), vehicle: olive oil, sesame oil, peanut oil 110 % of control | endpoint: mean survival time, dose: 400.0 mg/kg/injection, schedule: Q01DX001 (sc), vehicle: olive oil, sesame oil, peanut oil 101 % of control | endpoint: mean survival time, dose: 400.0 mg/kg/injection, schedule: Q04DX003 (sc), vehicle: olive oil, sesame oil, peanut oil 113 % of control

COc1ccccc1C(=O)C(O)c1ccccc1OC (centres undefined)
inactive: [13] 105 % of control | [7] 101 % of control | [8] 94 % of control | [9] 96 % of control | [10] 96 % of control | [11] 101 % of control | [12] 93 % of control

COC(=O)C1=C(C)NC(=O)NC1c1ccc(OC)cc1 (centres undefined)
inactive: [1] 103 % of control | endpoint: mean survival time, dose: 200.0 mg/kg/injection, schedule: Q04DX003 (ip), vehicle: saline with Tween-80 90 % of control | endpoint: mean survival time, dose: 400.0 mg/kg/injection, schedule: Q04DX003 (ip), vehicle: saline with Tween-80 90 % of control

C/C=C/CC1(CC)C(=O)NC(=O)NC1=O
inactive: endpoint: mean survival time, dose: 75.0 mg/kg/injection, schedule: Q01DX001 (ip), vehicle: other 98 % of control | endpoint: mean survival time, dose: 75.0 mg/kg/injection, schedule: Q01DX001 (ip), vehicle: saline 93 % of control | endpoint: mean survival time, dose: 150.0 mg/kg/injection, schedule: Q01DX001 (ip), vehicle: other 110 % of control | endpoint: mean survival time, dose: 150.0 mg/kg/injection, schedule: Q01DX001 (ip), vehicle: saline 102 % of control | endpoint: mean survival time, dose: 300.0 mg/kg/injection, schedule: Q01DX001 (ip), vehicle: other 96 % of control

c1ccc2c(c1)ccc1cc3ccncc3cc12
inactive: [2] 95 % of control and 98 % of control | [4] 100 % of control and 106 % of control | [14] 96 % of control

COc1ccc(N)c(CC2c3ccccc3CCN2C)c1 (centres undefined)
inactive: endpoint: mean survival time, dose: 10.0 mg/kg/injection, schedule: Q01DX001 (ip), vehicle: carboxymethylcellulose (CMC) 103 % of control | endpoint: mean survival time, dose: 20.0 mg/kg/injection, schedule: Q01DX001 (ip), vehicle: carboxymethylcellulose (CMC) 105 % of control | endpoint: mean survival time, dose: 40.0 mg/kg/injection, schedule: Q01DX001 (ip), vehicle: carboxymethylcellulose (CMC) 105 % of control | endpoint: mean survival time, dose: 80.0 mg/kg/injection, schedule: Q01DX001 (ip), vehicle: carboxymethylcellulose (CMC) 100 % of control | endpoint: mean survival time, dose: 100.0 mg/kg/injection, schedule: Q01DX001 (ip), vehicle: carboxymethylcellulose (CMC) 96 % of control
